Assay results published in PubChem BioAssay AID248 (DTP/NCI, 2004).
Several values for one entry are separate records, joined by “and”; a condition that tells them apart may be missing. Identical values can stand only once. Toxic doses and inconclusive results are not listed. No stated cut-off is given here; in the data, active means T/C of 150% or more; inactive means T/C below 125%.

Tested on: L1210 leukemia ip in BDF1 mice, survival T/C
Experiment: NCI In Vivo Anticancer Drug Screen. Data for tumor model L1210 Leukemia (intraperitoneal) in B6D2F1 (BDF1) mice
Settings: endpoint: mean survival time, higher = longer survival
How it was run: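 Transplanted-tumor mice were given test agent; controls received vehicle only. Survival readings from the two groups were divided (treated over control).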

[1] = dose: 100.0 mg/kg/injection, schedule: Q04DX003 (ip), vehicle: saline
[2] = dose: 100.0 mg/kg/injection, schedule: Q01DX009 (ip), vehicle: Klucel (hydroxypropylcellulose) (HPC)
[3] = dose: 200.0 mg/kg/injection, schedule: Q01DX009 (ip), vehicle: Klucel (hydroxypropylcellulose) (HPC)
[4] = dose: 100.0 mg/kg/injection, schedule: Q04DX003 (ip), vehicle: saline with Tween-80
[5] = dose: 200.0 mg/kg/injection, schedule: Q04DX003 (ip), vehicle: saline with Tween-80
[6] = dose: 400.0 mg/kg/injection, schedule: Q04DX003 (ip), vehicle: saline with Tween-80
[7] = dose: 100.0 mg/kg/injection, schedule: Q01DX001 (ip), vehicle: saline
[8] = dose: 200.0 mg/kg/injection, schedule: Q01DX001 (ip), vehicle: saline
[9] = dose: 400.0 mg/kg/injection, schedule: Q01DX001 (ip), vehicle: saline
[10] = dose: 400.0 mg/kg/injection, schedule: Q01DX009 (ip), vehicle: Klucel (hydroxypropylcellulose) (HPC)
[11] = dose: 100.0 mg/kg/injection, schedule: Q04DX003 (ip), vehicle: Klucel (hydroxypropylcellulose) (HPC)
[12] = dose: 200.0 mg/kg/injection, schedule: Q04DX003 (ip), vehicle: Klucel (hydroxypropylcellulose) (HPC)
[13] = dose: 400.0 mg/kg/injection, schedule: Q04DX003 (ip), vehicle: Klucel (hydroxypropylcellulose) (HPC)

Measured: T/C

CN(CCC[N+](C)(C)C)C(=O)C(c1ccccc1)c1ccccc1
inactive: [1] 100 % of control

Cc1cccc(NC(=O)c2c(Br)c(Br)c(Br)c(Br)c2C(=O)O)c1C
inactive: [2] 100 % of control | [3] 103 % of control

CCCNC(C)(C)C(SS)c1ccc(C(F)(F)F)cc1 (centres undefined)
inactive: dose: 12.5 mg/kg/injection, schedule: Q01DX009 (ip), vehicle: other 89 % of control | dose: 12.5 mg/kg/injection, schedule: Q04DX003 (ip), vehicle: other 94 % of control | dose: 25.0 mg/kg/injection, schedule: Q01DX009 (ip), vehicle: other 95 % of control | dose: 25.0 mg/kg/injection, schedule: Q04DX003 (ip), vehicle: other 96 % of control | dose: 50.0 mg/kg/injection, schedule: Q01DX009 (ip), vehicle: other 95 % of control | dose: 50.0 mg/kg/injection, schedule: Q04DX003 (ip), vehicle: other 89 % of control

CCCCCCCCCCCCNC1=C(Cl)C(=O)C(=O)c2cccnc21
inactive: [4] 98 % of control | [5] 101 % of control | [6] 95 % of control

CC1(C)CC(=O)C=C(N)C1
inactive: [4] 97 % of control | [5] 92 % of control | [6] 95 % of control

CCC1OCCN1C(C)C (centres undefined)
inactive: dose: 26.0 mg/kg/injection, schedule: Q01DX Z (ip), vehicle: other 105 % of control | dose: 90.0 mg/kg/injection, schedule: Q01DX Z (ip), vehicle: other 111 % of control | [7] 102 % of control and 104 % of control | dose: 135.0 mg/kg/injection, schedule: Q01DX Z (ip), vehicle: other 95 % of control | [8] 96 % of control and 104 % of control | [9] 92 % of control and 93 % of control

O=C1C(Br)C2CCC1C2C(=O)O (centres undefined)
inactive: dose: 100.0 mg/kg/injection, schedule: Q01DX009 (ip), vehicle: saline with Tween-80 103 % of control | [4] 87 % of control | dose: 200.0 mg/kg/injection, schedule: Q01DX009 (ip), vehicle: saline with Tween-80 89 % of control and 96 % of control | [5] 92 % of control | dose: 400.0 mg/kg/injection, schedule: Q01DX009 (ip), vehicle: saline with Tween-80 100 % of control and 94 % of control | [6] 101 % of control

Cc1ccc(S(=O)(=O)N/N=C\c2cccc([N+](=O)[O-])c2)cc1
inactive: [2] 103 % of control | [3] 98 % of control | [10] 93 % of control

c1ccc(C(=C(c2ccccc2)c2ccccc2)c2ccccc2)cc1
inactive: [2] 99 % of control | [11] 97 % of control | [3] 94 % of control | [12] 97 % of control | [10] 92 % of control | [13] 96 % of control

CCCN(CCC)CCSC(=S)NCCOC
inactive: dose: 4.0 mg/kg/injection, schedule: Q01DX001 (sc), vehicle: olive oil, sesame oil, peanut oil 110 % of control | dose: 8.0 mg/kg/injection, schedule: Q01DX001 (sc), vehicle: olive oil, sesame oil, peanut oil 112 % of control | dose: 16.0 mg/kg/injection, schedule: Q01DX001 (sc), vehicle: olive oil, sesame oil, peanut oil 116 % of control | dose: 32.0 mg/kg/injection, schedule: Q01DX001 (sc), vehicle: olive oil, sesame oil, peanut oil 118 % of control | dose: 50.0 mg/kg/injection, schedule: Q01DX001 (ip), vehicle: olive oil, sesame oil, peanut oil 96 % of control | dose: 50.0 mg/kg/injection, schedule: Q01DX009 (ip), vehicle: acetone 93 % of control | dose: 100.0 mg/kg/injection, schedule: Q01DX001 (ip), vehicle: acetone 110 % of control | dose: 100.0 mg/kg/injection, schedule: Q01DX001 (ip), vehicle: olive oil, sesame oil, peanut oil 92 % of control | dose: 100.0 mg/kg/injection, schedule: Q01DX009 (ip), vehicle: acetone 101 % of control | dose: 200.0 mg/kg/injection, schedule: Q01DX001 (ip), vehicle: acetone 104 % of control | dose: 200.0 mg/kg/injection, schedule: Q01DX001 (ip), vehicle: olive oil, sesame oil, peanut oil 103 % of control | dose: 400.0 mg/kg/injection, schedule: Q01DX001 (ip), vehicle: olive oil, sesame oil, peanut oil 88 % of control

c1ccn(-c2nccs2)c1
inactive: [4] 103 % of control | [5] 113 % of control

CC1CCC(C(C)C)/C(=N\O)C1 (centres undefined)
inactive: dose: 100.0 mg/kg/injection, schedule: Q01DX001 (ip), vehicle: saline with Tween-80 93 % of control | dose: 200.0 mg/kg/injection, schedule: Q01DX001 (ip), vehicle: saline with Tween-80 97 % of control | dose: 400.0 mg/kg/injection, schedule: Q01DX001 (ip), vehicle: saline with Tween-80 93 % of control

C(=C\c1cccc2ccccc12)/c1ccncc1
inactive: dose: 75.0 mg/kg/injection, schedule: Q01DX001 (ip), vehicle: carboxymethylcellulose (CMC) 97 % of control | dose: 150.0 mg/kg/injection, schedule: Q01DX001 (ip), vehicle: carboxymethylcellulose (CMC) 88 % of control | dose: 300.0 mg/kg/injection, schedule: Q01DX001 (ip), vehicle: carboxymethylcellulose (CMC) 90 % of control

CC(C)(C)OC(=O)C1=CNCCC1
inactive: [7] 102 % of control | [1] 106 % of control | [8] 94 % of control | dose: 200.0 mg/kg/injection, schedule: Q04DX003 (ip), vehicle: saline 98 % of control | [9] 105 % of control

Cc1ccc(C)c(NC(=O)Oc2ccc(Cl)c(C)c2)c1
inactive: dose: 100.0 mg/kg/injection, schedule: Q04DX002 (ip), vehicle: Klucel (hydroxypropylcellulose) (HPC) 102 % of control | dose: 200.0 mg/kg/injection, schedule: Q04DX002 (ip), vehicle: Klucel (hydroxypropylcellulose) (HPC) 105 % of control | dose: 400.0 mg/kg/injection, schedule: Q04DX002 (ip), vehicle: Klucel (hydroxypropylcellulose) (HPC) 108 % of control

CN(C)c1ccc(-c2nc3ccccc3s2)cc1
inactive: dose: 50.0 mg/kg/injection, schedule: Q04DX003 (ip), vehicle: Klucel (hydroxypropylcellulose) (HPC) 105 % of control | [11] 100 % of control | [12] 96 % of control

C[N+]1(CCO)CC[N+](C)(CCCN2c3ccccc3Sc3ccc(Cl)cc32)CC1 (centres undefined)
inactive: dose: 10.0 mg/kg/injection, schedule: Q01DX001 (ip), vehicle: carboxymethylcellulose (CMC) 98 % of control | dose: 20.0 mg/kg/injection, schedule: Q01DX001 (ip), vehicle: carboxymethylcellulose (CMC) 101 % of control | dose: 40.0 mg/kg/injection, schedule: Q01DX001 (ip), vehicle: carboxymethylcellulose (CMC) 113 % of control

O=C(Nc1cc([N+](=O)[O-])ccc1F)Nc1ccccc1C(F)(F)F
inactive: [11] 96 % of control | [12] 94 % of control | [13] 91 % of control

N#C/C(=C/Cc1ccc(Cl)cc1)Nc1ccccc1C(N)=O
inactive: dose: 12.5 mg/kg/injection, schedule: Q01DX001 (ip), vehicle: Klucel (hydroxypropylcellulose) (HPC) 101 % of control | dose: 25.0 mg/kg/injection, schedule: Q01DX001 (ip), vehicle: Klucel (hydroxypropylcellulose) (HPC) 101 % of control | dose: 50.0 mg/kg/injection, schedule: Q01DX001 (ip), vehicle: Klucel (hydroxypropylcellulose) (HPC) 102 % of control | dose: 75.0 mg/kg/injection, schedule: Q04DX003 (ip), vehicle: Klucel (hydroxypropylcellulose) (HPC) 104 % of control | dose: 115.0 mg/kg/injection, schedule: Q04DX003 (ip), vehicle: Klucel (hydroxypropylcellulose) (HPC) 104 % of control | dose: 170.0 mg/kg/injection, schedule: Q04DX003 (ip), vehicle: Klucel (hydroxypropylcellulose) (HPC) 98 % of control
